test system: Myo5 SH3 domain; assay: SPOT analysis of cellulose-bound peptides (WISE), Myo5 SH3 domain (Dataset S4); format: binding, Saccharomyces cerevisiae; details: SPOT analysis of cellulose-bound 14-mer yeast proteome peptides, Myo5 SH3 domain; normalized value; mean where the peptide was synthesized more than once

| Sequence | The normalized value in BLU units |
| --- | --- |
| GPIIHPGPEPPRYD | 205.1 BLU |
| GPLLLTVPELPEAD | 162.3 BLU |
| GPSQFAPPPPPPGV | 20435.9 BLU |
| GWSTYIPPFNPLEI | 113.7 BLU |
| GYDEKGNPIPPNNW | 96.0 BLU |
| HAEAFEDPSIPRIS | 324.6 BLU |
| HATLYWAPVSPLKS | 151.3 BLU |
| HEHNYAIPYTPATF | 129.1 BLU |
| HEYNLALPKFPILF | 146.8 BLU |
| HFLCLDPPIDPNNL | 122.0 BLU |
| HLDSFSPPFSPSTT | 120.7 BLU |
| HLFHLTTPQDPRLL | 245.7 BLU |
| HLVVWNPPILPQHE | 117.9 BLU |
| HNAAKPIPHVPQAS | 62.3 BLU |
| HPEYLSLPFEPYCF | 212.9 BLU |
| HPIHLQPPVPPVYK | 317.7 BLU |

same assay, conditions: SPOT analysis of cellulose-bound peptides probed with Myo5 SH3 domain; normalized value

| Sequence | The normalized value in BLU units (SPOT analysis, Myo5 SH3) |
| --- | --- |
| GPEFWISPDTPLKF | 87.4 BLU |
| GWEPFSLPKDPKVV | 75.9 BLU |
| GWPVYNYPMQPTTE | 167.9 BLU |
| GWVVYPPPPKPSYN | 452.7 BLU |
| HAVLLNPPVAPTAE | 227.5 BLU |
| HAWDMRSPHRPFYS | 822.1 BLU |
| HEKLYHNPSLPAQS | 78.1 BLU |
| HFLAYTNPRAPGKL | 111.7 BLU |
| HFNDLQSPAQPQQS | 92.5 BLU |
| HFYEYVYPSLPFIE | 152.0 BLU |
| HLARYIFPPNPVFH | 279.4 BLU |
| HLTDLSPPGTPPTM | 260.8 BLU |
| HPHPHPHPHTPTHT | 238.0 BLU |
| HPSGLNSPKLPPLP | 456.8 BLU |
| HPYMMVYPMSPPPP | 562.8 BLU |

same assay, conditions: SPOT analysis of membrane-bound peptides, Myo5 SH3 domain; normalized value (see methods)

| Sequence | The normalized value in BLU units |
| --- | --- |
| GQQKRFSPSLPSAV | 728.5 BLU |
| GRSLRKRPTSPSIS | 819.6 BLU |
| GSLVKTKPTLPLTK | 421.7 BLU |
| GSQWKNHPDWPFWV | 108.4 BLU |
| GTGRRRSPSTPIMP | 921.0 BLU |
| GYNPKTVPFVPISG | 108.5 BLU |
| HEASKCFPKAPQAS | 288.6 BLU |
| HELVKSDPHFPYGT | 229.2 BLU |
| HEVPKRSPEKPSNP | 171.6 BLU |
| HFNTKKIPELPSQF | 466.9 BLU |
| HICDKMNPASPQYF | 159.1 BLU |
| HILEKYSPFDPCGR | 166.2 BLU |
| HLLGKEGPSAPNPS | 124.5 BLU |
| HRLFKCTPGLPKLW | 266.0 BLU |

same assay, conditions: SPOT analysis of membrane-synthesized peptides probed with Myo5 SH3 domain; normalized value

| Sequence | The normalized value in BLU units (SPOT analysis, Myo5 SH3) |
| --- | --- |
| GNNSRNIPPPPPPP | 10334.3 BLU |
| GQIDRDKPSEPERT | 100.5 BLU |
| GRHLKNIPRIPIFC | 1042.1 BLU |
| GSYIKRTPKIPEKD | 206.2 BLU |
| GTRPKILPKIPTGA | 772.9 BLU |
| GTTNRGPPPLPPRA | 39858.8 BLU |
| GTVTKTAPSFPQSS | 261.1 BLU |
| HEREKALPPIPFTT | 214.6 BLU |
| HFPSRSQPSDPKLQ | 257.5 BLU |
| HKFVKSSPVVPFDD | 150.9 BLU |
| HLVRKVAPTKPMYC | 477.5 BLU |
| HSTPKPLPPVPALS | 143.5 BLU |
| HTIPKSGPIVPYVL | 163.7 BLU |

From article PMC314469, “Protein Interaction Networks by Proteome Peptide Scanning” (PLoS Biology, 2004)
